Data published in patent publication EP4653437A2 (Innovo Therapeutics Inc., priority 2023, dated 2024).

Legend:
human 15-PGDH = biological target: T1, human 15-PGDH (Homo sapiens, UniProt P15428); assay: Evaluation of 15-PGDH inhibitory activity (fluorescence enzyme assay, NAD+/PGE2); type: biochemical; conditions: human 15-PGDH enzyme, fluorescence Vmax
T1 construct: purchased R&D System 5660-DH
T1 sequence (P15428 1-266): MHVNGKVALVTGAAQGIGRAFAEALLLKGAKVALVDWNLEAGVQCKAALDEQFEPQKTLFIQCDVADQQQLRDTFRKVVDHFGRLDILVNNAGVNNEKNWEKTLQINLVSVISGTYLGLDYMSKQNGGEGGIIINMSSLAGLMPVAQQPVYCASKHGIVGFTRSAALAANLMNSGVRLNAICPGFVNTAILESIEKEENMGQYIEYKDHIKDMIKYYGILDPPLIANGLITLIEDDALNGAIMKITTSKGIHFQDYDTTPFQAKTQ
Experimental: 15-PGDH inhibition activity of Example compounds was measured as follows. 6.7 ng of human 15-PGDH (R&D System# 5660-DH) enzyme (10 µL) was added to a black 96 well plate, 60 µL of buffer (50 mM Tris-HCl, pH 7.5, 0.01% Tween 20) was added, and 10 µL of 200 µM β-Nicotinamide adenine dinucleotide sodium salt (Sigma, Cat# N0632-5G) was added. 10 µL of (10x) compound solution in DMSO was added and reacted for 10 minutes at room temperature.

A549 cells = assay: Measurement of PGE2-increasing activity in A549 cells (IL-1β stimulated, PGE2 quantified in supernatant); type: cell-based; conditions: Homo sapiens, 24 h; concentration of 1 µM of each compound; IL-1β treated A549 cells; read-out: Increased PGE2 production in A549 cells
Experimental: A549 cells were prepared at a cell number of 1 x 10^5/mL in F12K medium containing 10% FBS (Fetal Bovine Serum), and 2 x 10^4/200 µL was added to each well of a 96-well cell culture plate, and then cultured in an incubator with 5% CO2 at 37 °C for 24 hours. After the culture was complete and all F12K medium was removed, all wells were washed once with 100 µL of PBS, and treated with 160 µL of serum-free F12K medium. Then, 20 µL of IL-1β diluted 10-fold to a concentration of 1 ng/mL in serum-free F12K medium was treated to wells to be treated with IL-1β, and 20 µL of serum-free F12K medium was treated to wells not treated with IL-1β. For the wells to be treated with the compound, 20 µL of the compound dissolved in 100% DMSO was diluted to a concentration 10 times of the desired compound concentration in serum-free F12K medium so that the final DMSO concentration treated to the cells was 0.1%, and for the wells not to be treated with the compound, 20 µL of DMSO diluted in serum-free F12K medium so that the final DMSO concentration treated to the cells was 0.1% was treated. In order to confirm the increase or decrease in the secretion amount of PGE2 in the supernatant collected after culturing for 24 hours in an incubator with 5% CO2 at 37 °C, PGE2 was quantified using the Prostaglandin E2 Parameter (SKGE004B).

IC50 (human 15-PGDH) [nM] | Compound | fold induction at 1 µM (A549 cells)
≤ 100 | Nc1nc(-c2ccc(-c3cccc4c(C(=O)N5CCCCC5)cnn34)cc2)no1 [Example 359, [7-[4-(5-amino-1,2,4-oxadiazol-3-yl)phenyl]pyrazolo[1,5-a]pyridin-3-yl]-(1-piperidyl)methanone] | > 1.5
≤ 100 | O=C(Nc1cccc(-c2cccc3c(C(=O)N4CCCCC4)cnn23)c1)C1CCCCC1 [Example 96, N-(3-(3-(piperidine-1-carbonyl)pyrazolo[1,5-a]pyridin-7-yl)phenyl)cyclohexanecarboxamide] | < 1.5
≤ 100 | O=C(Nc1ccnnc1)c1cncc(-c2cccc3c(C(=O)N4CCCCC4)cnn23)c1 [Example 56, 5-(3-(piperidine-1-carbonyl)pyrazolo[1,5-a]pyridin-7-yl)-N-(pyridazin-4-yl)nicotinamide] | > 1.5
≤ 100 | CN(C)c1ncc(-c2cccc3c(C(=O)N4CCCCC4)cnn23)cc1C#N [Example 270, 2-(dimethylamino)-5-(3-(piperidine-1-carbonyl)pyrazolo[1,5-a]pyridin-7-yl)nicotinonitrile] | > 1.5
≤ 100 | O=C(c1cnn2c(-c3cc(F)c(-c4noc(=O)[nH]4)c(F)c3)cccc12)N1CCCCC1 [Example 331, 3-(2,6-difluoro-4-(3-(piperidine-1-carbonyl)pyrazolo[1,5-a]pyridin-7-yl)phenyl)-1,2,4-oxadiazol-5(4H)-one] | > 1.5
≤ 100 | Nc1n[nH]c2ccc(-c3cccc4c(C(=O)N5CCCCC5)cnn34)cc12 [Example 260, [7-(3-amino-1H-indazol-5-yl)pyrazolo[1,5-a]pyridin-3-yl]-(1-piperidyl)methanone] | > 1.5
100 to 1000 | Nc1nn2c(-c3ccc4c(c3)C(=O)NCC4)cccc2c1C(=O)N1CCCCC1 [Example 159, 7-(2-amino-3-(piperidine-1-carbonyl)pyrazolo[1,5-a]pyridin-7-yl)-3,4-dihydroisoquinolin-1(2H)-one] | > 1.5
≤ 100 | O=C(Cc1ccc(C(F)(F)F)nc1)Nc1ccc(-c2cccc3c(C(=O)N4CCCCC4)cnn23)cn1 [Example 408, N-[5-[3-(piperidine-1-carbonyl)pyrazolo[1,5-a]pyridin-7-yl]-2-pyridyl]-2-[6-(trifluoromethyl)-3-pyridyl]acetamide] | > 1.5
≤ 100 | O=C(COc1ccc(Cl)cc1)Nc1cncc(-c2cccc3c(C(=O)N4CCCCC4)cnn23)c1 [Example 406, 2-(4-chlorophenoxy)-N-(5-(3-(piperidine-1-carbonyl)pyrazolo[1,5-a]pyridin-7-yl)pyridin-3-yl)acetamide] | > 1.5
≤ 100 | CCC1CCCN(C(=O)c2cnn3c(-c4ccc5c(c4)C(=O)NC5)cccc23)C1 (centres unmarked) [Example 393, 6-(3-(3-ethylpiperidine-1-carbonyl)pyrazolo[1,5-a]pyridin-7-yl)isoindolin-1-one] | > 1.5
≤ 100 | O=C(c1cncc(-c2cccc3c(C(=O)N4CCCCC4)cnn23)c1)N1CC(=NO)C1 [Example 230, (3-hydroxyiminoazetidin-1-yl)-[5-[3-(piperidine-1-carbonyl)pyrazolo[1,5-a]pyridin-7-yl]-3-pyridyl]methanone] | > 1.5
≤ 100 | NC(=O)c1ncc(-c2ccc(-c3cccc4c(C(=O)N5CCCCC5)cnn34)cc2)cn1 [Example 307, 5-[4-[3-(piperidine-1-carbonyl)pyrazolo[1,5-a]pyridin-7-yl]phenyl]pyrimidine-2-carboxamide] | > 1.5
≤ 100 | O=C(c1cnn2c(-c3ccc(-c4n[nH]c(=O)o4)cc3)cccc12)N1CCCCC1 [Example 349, 5-[4-[3-(piperidine-1-carbonyl)pyrazolo[1,5-a]pyridin-7-yl]phenyl]-3H-1,3,4-oxadiazol-2-one] | > 1.5

Second part, the molecule before the results:

Compound | IC50 (human 15-PGDH) [nM] | fold induction at 1 µM (A549 cells)
O=C(NCc1ccon1)c1cncc(-c2cccc3c(C(=O)N4CCCCC4)cnn23)c1 [Example 55, N-(isoxazol-3-ylmethyl)-5-(3-(piperidine-1-carbonyl)pyrazolo[1,5-a]pyridin-7-yl)nicotinamide] | ≤ 100 | > 1.5
O=C(Nc1cncc(-c2cccc3c(C(=O)N4CCCCC4)cnn23)c1)c1cccnc1 [Example 326, N-(5-(3-(piperidine-1-carbonyl)pyrazolo[1,5-a]pyridin-7-yl)pyridin-3-yl)nicotinamide] | ≤ 100 | > 1.5
CN1CCN(C(=O)c2ccc(-c3cccc4c(C(=O)N5CCCCC5)cnn34)cc2)CC1 [Example 67, (4-methylpiperazin-1-yl)(4-(3-(piperidine-1-carbonyl)pyrazolo[1,5-a]pyridin-7-yl)phenyl)methanone] | ≤ 100 | > 1.5
O=C(c1cnn2c(-c3cc(F)cc(Cl)c3)cccc12)N1CCCCC1 [Example 279, (7-(3-chloro-5-fluorophenyl)pyrazolo[1,5-a]pyridin-3-yl)(piperidin-1-yl)methanone] | ≤ 100 | < 1.5
CN1CCC(C(=O)Nc2cccc(-c3cccc4c(C(=O)N5CCCCC5)cnn34)c2)CC1 [Example 93, 1-methyl-N-(3-(3-(piperidine-1-carbonyl)pyrazolo[1,5-a]pyridin-7-yl)phenyl)piperidine-4-carboxamide] | ≤ 100 | > 1.5
O=C(c1cnn2c(-c3cc(F)ncc3Cl)cccc12)N1CCCCC1 [Example 298, (7-(5-chloro-2-fluoropyridin-4-yl)pyrazolo[1,5-a]pyridin-3-yl)(piperidin-1-yl)methanone] | ≤ 100 | > 1.5
O=C(Nc1cccnc1)c1cncc(-c2cccc3c(C(=O)N4CCCCC4)cnn23)c1 [Example 53, 5-(3-(piperidine-1-carbonyl)pyrazolo[1,5-a]pyridin-7-yl)-N-(pyridin-3-yl)nicotinamide] | ≤ 100 | > 1.5
CNc1nn2c(-c3ccc4c(c3)C(=O)NCC4)cccc2c1C(=O)N1CCCCC1 [Example 160] | > 1000 | < 1.5
O=C1NCc2ccc(-c3cccc4c(C(=O)N5CCCC(F)(F)C5)cnn34)cc21 [Example 382, 6-(3-(3,3-difluoropiperidine-1-carbonyl)pyrazolo[1,5-a]pyridin-7-yl)isoindolin-1-one] | ≤ 100 | > 1.5
N#Cc1c(F)cc(-c2cccc3c(C(=O)N4CCCCC4)cnn23)cc1F [Example 290, 2,6-difluoro-4-(3-(piperidine-1-carbonyl)pyrazolo[1,5-a]pyridin-7-yl)benzonitrile] | ≤ 100 | > 1.5
O=C(Nc1ccc(-c2cccc3c(C(=O)N4CCCCC4)cnn23)cc1)c1cccnc1 [Example 101, N-(4-(3-(piperidine-1-carbonyl)pyrazolo[1,5-a]pyridin-7-yl)phenyl)nicotinamide] | ≤ 100 | > 1.5
Cc1noc(C)c1-c1ccc(-c2cccc3c(C(=O)N4CCCCC4)cnn23)cc1 [Example 324, [7-[4-(3,5-dimethylisoxazol-4-yl)phenyl]pyrazolo[1,5-a]pyridin-3-yl]-(1-piperidyl)methanone] | ≤ 100 | > 1.5
O=C(c1cnn2c(-c3ccc(-c4noc(=O)[nH]4)cc3F)cccc12)N1CCCCC1 [Example 295, 3-[3-fluoro-4-[3-(piperidine-1-carbonyl)pyrazolo[1,5-a]pyridin-7-yl]phenyl]-4H-1,2,4-oxadiazol-5-one] | ≤ 100 | > 1.5
CC(C)NC(=O)c1ccc(-c2cccc3c(C(=O)N4CCCCC4)cnn23)cc1 [Example 60, N-isopropyl-4-(3-(piperidine-1-carbonyl)pyrazolo[1,5-a]pyridin-7-yl)benzamide] | ≤ 100 | > 1.5
Cc1nc(-c2cc(-c3cccc4c(C(=O)N5CCCCC5)cnn34)cc([N+](=O)[O-])c2)no1 [Example 330, (7-(3-(5-methyl-1,2,4-oxadiazol-3-yl)-5-nitrophenyl)pyrazolo[1,5-a]pyridin-3-yl)(piperidin-1-yl)methanone] | ≤ 100 | > 1.5
